Source: ChEMBL document CHEMBL3526057 (Drug Metab Dispos, 2011)

Legend:
Format in all cases: ADME
Cytochrome P450 2C19 [1] = molecular target: T1, Cytochrome P450 2C19 (Homo sapiens, UniProt P33261, D360N); test: Activity of human recombinant CYP2C19 D360N mutant expressed in Saccharomyces cerevisiae BJ5457 assessed asomeprazole 5'-hydroxylation after 60 mins; conditions: recombinant enzyme, 1 h
Cytochrome P450 2C19 [2] = molecular target: T2, Cytochrome P450 2C19 (Homo sapiens, UniProt P33261, F168L); test: Activity of human recombinant CYP2C19 F168L mutant expressed in Saccharomyces cerevisiae BJ5457 assessed as omeprazole 5'-hydroxylation per pmol protein at 5 uM after 60 mins; conditions: recombinant enzyme, 1 h
Cytochrome P450 2C19 [3] = molecular target: T3, Cytochrome P450 2C19 (Homo sapiens, UniProt P33261, I19L); test: Activity of human recombinant CYP2C19.15 mutant expressed in Saccharomyces cerevisiae BJ5457 assessed as intrinisic clearance foromeprazole 5'-hydroxylation per pmol protein after 60 mins; conditions: recombinant enzyme, 1 h
Cytochrome P450 2C19 [4] = molecular target: T4, Cytochrome P450 2C19 (Homo sapiens, UniProt P33261, R410C); test: Activity of human recombinant CYP2C19.13 mutant expressed in Saccharomyces cerevisiae BJ5457 assessed asomeprazole 5'-hydroxylation after 60 mins; conditions: recombinant enzyme, 1 h
Cytochrome P450 2C19 [5] = molecular target: T5, Cytochrome P450 2C19 (Homo sapiens, UniProt P33261, L17P); test: Activity of human recombinant CYP2C19.14 mutant expressed in Saccharomyces cerevisiae BJ5457 assessed as omeprazole 5'-hydroxylation per pmol protein at 100 uM after 60 mins; conditions: recombinant enzyme, 1 h
[6] = molecular target: CYP2C19.14 (CYP2C19 variant) (Homo sapiens, UniProt P33261, L17P); test: Activity of human recombinant CYP2C19.14 mutant expressed in Saccharomyces cerevisiae BJ5457 assessed asomeprazole 5'-hydroxylation after 60 mins; conditions: probe omeprazole (5'-hydroxylation)
Cytochrome P450 2C19 [7] = molecular target: T3, Cytochrome P450 2C19; test: Activity of human recombinant CYP2C19.15 mutant expressed in Saccharomyces cerevisiae BJ5457 assessed as omeprazole 5'-hydroxylation per pmol protein at 100 uM after 60 mins; conditions: recombinant enzyme, 1 h
Cytochrome P450 2C19 [8] = molecular target: Cytochrome P450 2C19 (Homo sapiens, UniProt P33261, V331I/R442C); test: Activity of human recombinant CYP2C19.16 mutant expressed in Saccharomyces cerevisiae BJ5457 assessed asomeprazole 5'-hydroxylation per pmol protein after 60 mins; conditions: recombinant enzyme, 1 h
Cytochrome P450 2C19 [9] = molecular target: T4, Cytochrome P450 2C19; test: Activity of human recombinant CYP2C19.13 mutant expressed in Saccharomyces cerevisiae BJ5457 assessed as intrinisic clearance foromeprazole 5'-hydroxylation per pmol protein after 60 mins; conditions: recombinant enzyme, 1 h
Cytochrome P450 2C19 [10] = molecular target: T6, Cytochrome P450 2C19 (Homo sapiens, UniProt P33261, A161P); test: Activity of human recombinant CYP2C19 A161P mutant expressed in Saccharomyces cerevisiae BJ5457 assessed as intrinisic clearance foromeprazole 5'-hydroxylation per pmol protein after 60 mins; conditions: recombinant enzyme, 1 h
Cytochrome P450 2C19 [11] = molecular target: Cytochrome P450 2C19 (Homo sapiens, UniProt P33261, P227L); test: Activity of human recombinant CYP2C19.10 mutant expressed in Saccharomyces cerevisiae BJ5457 assessed as omeprazole 5'-hydroxylation per pmol protein at 100 uM after 60 mins; conditions: recombinant enzyme, 1 h
Cytochrome P450 2C19 [12] = molecular target: T7, Cytochrome P450 2C19 (Homo sapiens, UniProt P33261, E92D); test: Activity of human recombinant CYP2C19 E92D mutant expressed in Saccharomyces cerevisiae BJ5457 assessed as omeprazole 5'-hydroxylation per pmol protein at 100 uM after 60 mins; conditions: recombinant enzyme, 1 h
Cytochrome P450 2C19 [13] = molecular target: Cytochrome P450 2C19 (Homo sapiens, UniProt P33261, M74T); test: Activity of human recombinant CYP2C19 M74T mutant expressed in Saccharomyces cerevisiae BJ5457 assessed asomeprazole 5'-hydroxylation after 60 mins; conditions: recombinant enzyme, 1 h
Cytochrome P450 2C19 [14] = molecular target: T5, Cytochrome P450 2C19; test: Activity of human recombinant CYP2C19.14 mutant expressed in Saccharomyces cerevisiae BJ5457 assessed as intrinisic clearance foromeprazole 5'-hydroxylation per pmol protein after 60 mins; conditions: recombinant enzyme, 1 h
Cytochrome P450 2C19 [15] = molecular target: T1, Cytochrome P450 2C19; test: Activity of human recombinant CYP2C19 D360N mutant expressed in Saccharomyces cerevisiae BJ5457 assessed asomeprazole 5'-hydroxylation per pmol protein after 60 mins; conditions: recombinant enzyme, 1 h
Cytochrome P450 2C19 [16] = molecular target: Cytochrome P450 2C19 (Homo sapiens, UniProt P33261, W212C); test: Activity of human recombinant CYP2C19 W212C mutant expressed in Saccharomyces cerevisiae BJ5457 assessed as omeprazole 5'-hydroxylation per pmol protein at 5 uM after 60 mins; conditions: recombinant enzyme, 1 h
Cytochrome P450 2C19 [17] = molecular target: T8, Cytochrome P450 2C19 (Homo sapiens, UniProt P33261, E122A); test: Activity of human recombinant CYP2C19 E122A mutant expressed in Saccharomyces cerevisiae BJ5457 assessed as omeprazole 5'-hydroxylation per pmol protein at 5 uM after 60 mins; conditions: recombinant enzyme, 1 h
Cytochrome P450 2C19 [18] = molecular target: T9, Cytochrome P450 2C19 (Homo sapiens, UniProt P33261); test: Activity of human recombinant CYP2C19.1B mutant expressed in Saccharomyces cerevisiae BJ5457 assessed as omeprazole 5'-hydroxylation per pmol protein at 5 uM after 60 mins; conditions: recombinant enzyme, 1 h
Cytochrome P450 2C19 [19] = molecular target: T7, Cytochrome P450 2C19; test: Activity of human recombinant CYP2C19 E92D mutant expressed in Saccharomyces cerevisiae BJ5457 assessed as omeprazole 5'-hydroxylation per pmol protein at 5 uM after 60 mins; conditions: recombinant enzyme, 1 h
Cytochrome P450 2C19 [20] = molecular target: T8, Cytochrome P450 2C19; test: Activity of human recombinant CYP2C19 E122A mutant expressed in Saccharomyces cerevisiae BJ5457 assessed asomeprazole 5'-hydroxylation after 60 mins; conditions: recombinant enzyme, 1 h
Cytochrome P450 2C19 [21] = molecular target: T1, Cytochrome P450 2C19; test: Activity of human recombinant CYP2C19 D360N mutant expressed in Saccharomyces cerevisiae BJ5457 assessed as omeprazole 5'-hydroxylation per pmol protein at 100 uM after 60 mins; conditions: recombinant enzyme, 1 h
Cytochrome P450 2C19 [22] = molecular target: T6, Cytochrome P450 2C19; test: Activity of human recombinant CYP2C19 A161P mutant expressed in Saccharomyces cerevisiae BJ5457 assessed as omeprazole 5'-hydroxylation per pmol protein at 5 uM after 60 mins; conditions: recombinant enzyme, 1 h
Cytochrome P450 2C19 [23] = molecular target: T10, Cytochrome P450 2C19 (Homo sapiens, UniProt P33261, R329H); test: Activity of human recombinant CYP2C19.18 mutant expressed in Saccharomyces cerevisiae BJ5457 assessed asomeprazole 5'-hydroxylation after 60 mins; conditions: recombinant enzyme, 1 h
Cytochrome P450 2C19 [24] = molecular target: T7, Cytochrome P450 2C19; test: Activity of human recombinant CYP2C19 E92D mutant expressed in Saccharomyces cerevisiae BJ5457 assessed asomeprazole 5'-hydroxylation per pmol protein after 60 mins; conditions: recombinant enzyme, 1 h
Cytochrome P450 2C19 [25] = molecular target: Cytochrome P450 2C19 (Homo sapiens, UniProt P33261, R150H); test: Activity of human recombinant CYP2C19.11 mutant expressed in Saccharomyces cerevisiae BJ5457 assessed asomeprazole 5'-hydroxylation after 60 mins; conditions: recombinant enzyme, 1 h
Cytochrome P450 2C19 [26] = molecular target: T9, Cytochrome P450 2C19; test: Activity of human recombinant CYP2C19.1B mutant expressed in Saccharomyces cerevisiae BJ5457 assessed as intrinisic clearance foromeprazole 5'-hydroxylation per pmol protein after 60 mins; conditions: recombinant enzyme, 1 h
Cytochrome P450 2C19 [27] = molecular target: T9, Cytochrome P450 2C19; test: Activity of human recombinant CYP2C19.8 mutant expressed in Saccharomyces cerevisiae BJ5457 assessed as omeprazole 5'-hydroxylation per pmol protein at 5 uM after 60 mins; conditions: recombinant enzyme, 1 h
Cytochrome P450 2C19 [28] = molecular target: T2, Cytochrome P450 2C19; test: Activity of human recombinant CYP2C19 F168L mutant expressed in Saccharomyces cerevisiae BJ5457 assessed asomeprazole 5'-hydroxylation after 60 mins; conditions: recombinant enzyme, 1 h
Cytochrome P450 2C19 [29] = molecular target: T9, Cytochrome P450 2C19; test: Activity of human recombinant CYP2C19.1B mutant expressed in Saccharomyces cerevisiae BJ5457 assessed as omeprazole 5'-hydroxylation per pmol protein at 100 uM after 60 mins; conditions: recombinant enzyme, 1 h
Cytochrome P450 2C19 [30] = molecular target: T10, Cytochrome P450 2C19; test: Activity of human recombinant CYP2C19.18 mutant expressed in Saccharomyces cerevisiae BJ5457 assessed asomeprazole 5'-hydroxylation per pmol protein after 60 mins; conditions: recombinant enzyme, 1 h

Km (Cytochrome P450 2C19 [1]): 7.81 µM | Drug metabolism (Cytochrome P450 2C19 [2]): 3.08 pmol/min | CL (Cytochrome P450 2C19 [3]): 1.21 µL/min | Km (Cytochrome P450 2C19 [4]): 4.87 µM | Drug metabolism (Cytochrome P450 2C19 [5]): 8.25 pmol/min | Km at 1 h [6]: 4.3 µM | Drug metabolism (Cytochrome P450 2C19 [7]): 7.81 pmol/min | Vmax (Cytochrome P450 2C19 [8]): 1.68 pmol/min | CL (Cytochrome P450 2C19 [9]): 1.54 µL/min | CL (Cytochrome P450 2C19 [10]): 0.24 µL/min | Drug metabolism (Cytochrome P450 2C19 [11]): 5 pmol/min | Drug metabolism (Cytochrome P450 2C19 [12]): 7.02 pmol/min | Km (Cytochrome P450 2C19 [13]): 3.62 µM | CL (Cytochrome P450 2C19 [14]): 1.91 µL/min | Vmax (Cytochrome P450 2C19 [15]): 4.11 pmol/min | Drug metabolism (Cytochrome P450 2C19 [16]): 0.58 pmol/min | Drug metabolism (Cytochrome P450 2C19 [17]): 1.58 pmol/min | Drug metabolism (Cytochrome P450 2C19 [18]): 2.73 pmol/min | Drug metabolism (Cytochrome P450 2C19 [19]): 2.95 pmol/min | Km (Cytochrome P450 2C19 [20]): 12.3 µM | Drug metabolism (Cytochrome P450 2C19 [21]): 4.1 pmol/min | Drug metabolism (Cytochrome P450 2C19 [22]): 0.65 pmol/min | Km (Cytochrome P450 2C19 [23]): 6.02 µM | Vmax (Cytochrome P450 2C19 [24]): 6.93 pmol/min | Km (Cytochrome P450 2C19 [25]): 4.91 µM | CL (Cytochrome P450 2C19 [26]): 1.24 µL/min | Drug metabolism (Cytochrome P450 2C19 [27]): metabolite_not_detected | Km (Cytochrome P450 2C19 [28]): 6.56 µM | Drug metabolism (Cytochrome P450 2C19 [29]): 5.36 pmol/min | Vmax (Cytochrome P450 2C19 [30]): 7.77 pmol/min
Compound: COc1ccc2[nH]c([S+]([O-])Cc3ncc(C)c(OC)c3C)nc2c1 (stereo not given) [OMEPRAZOLE]
